# In PMC5982655, “Interaction of the New Monofunctional Anticancer Agent Phenanthriplatin With Transporters for Organic Cations” (Frontiers in Chemistry, 2018):
# Legend:
# hOCT1 = molecular target: T1, hOCT1 (Homo sapiens, UniProt O15245); test: Inhibition of ASP+ uptake in HEK 293 cells expressing hOCT1; assay type: cell-based; settings: HEK 293 hOCT1, 1 μM ASP+
# T1 construct: expressed in transfected cells; gift of H. Koepsell
# T1 sequence (O15245 1-554): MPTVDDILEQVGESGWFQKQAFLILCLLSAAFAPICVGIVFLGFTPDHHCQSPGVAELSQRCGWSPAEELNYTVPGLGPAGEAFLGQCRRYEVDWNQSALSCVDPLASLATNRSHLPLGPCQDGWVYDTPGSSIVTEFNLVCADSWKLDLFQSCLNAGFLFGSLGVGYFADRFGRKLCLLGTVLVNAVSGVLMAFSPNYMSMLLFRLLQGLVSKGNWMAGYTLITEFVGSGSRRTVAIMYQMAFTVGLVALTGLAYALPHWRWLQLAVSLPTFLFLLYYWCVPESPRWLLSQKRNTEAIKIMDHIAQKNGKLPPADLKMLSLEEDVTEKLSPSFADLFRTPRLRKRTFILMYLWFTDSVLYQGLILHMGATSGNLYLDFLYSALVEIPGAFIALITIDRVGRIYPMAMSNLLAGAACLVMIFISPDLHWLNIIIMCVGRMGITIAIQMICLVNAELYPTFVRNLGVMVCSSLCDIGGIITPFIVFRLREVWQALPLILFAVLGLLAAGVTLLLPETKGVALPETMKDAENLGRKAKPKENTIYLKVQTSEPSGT
# Experimental: (§1) The interaction of phenanthriplatin with transporters for organic cations (OCT1-3, MATE1, and MATE2K) was investigated by measuring its effects on the uptake of the fluorescent organic cation 4-(4-dimethylamino)styryl-N-methylpyridinium (ASP^+). Microfluorometric measurements of ASP^+ uptake were performed with a fluorescence plate reader (Infinity 200, Tecan, Crailsheim, Germany; excitation at 465 nm, emission at 590 nm) as described previously for cultured HEK 293 cells (Wilde et al., [2009]). Before measurements, the culture medium in the wells of the 96 well microtiter plate containing HEK 293 cells was replaced by a HCO3- -free Ringer-like solution containing (in mM) NaCl 145, K2HPO4 1.6, KH2PO4 0.4, D-glucose 5, MgCl2 1, calcium gluconate 1.3, and pH adjusted to 7.4. Fluorescence was measured dynamically at 37°C in each well before and after ASP^+ addition to HCO3- -free Ringer-like solution, alone or together with increasing phenanthriplatin concentrations, and plotted versus time. ASP^+ (final concentration 1 or 10 μM for experiments with OCTs or MATEs, respectively) was added after the third sampling interval. Emission from the complete area of the well bottom was analyzed four times and averaged for each well. […] Background fluorescence was measured for each plate in wells with identical solutions containing no cells and subtracted from each well containing cells. Experiments were performed with cells from one passage of the same day with controls and test replicates in the same plate.
# (§2) Data are presented as mean values ± SEM, with (n) referring to the number of wells. IC50 values defined as the concentration of platinum agent required to inhibit uptake of ASP^+ by 50% and EC50 values used to assess cell viability were obtained by sigmoidal concentration-response curve fitting using GraphPad Prism, Version 5.3 (GraphPad Software, San Diego, USA). […] For multiple comparisons, ANOVA with Bonferroni post-test was used. A P-value < 0.05 was considered statistically significant.
# hOCT2 = molecular target: T2, hOCT2 (Homo sapiens, UniProt O15244); test: Inhibition of ASP+ uptake in HEK 293 cells expressing hOCT2; assay type: cell-based; settings: HEK 293 hOCT2, 1 μM ASP+
# T2 construct: expressed in transfected cells; gift of H. Koepsell
# T2 sequence (O15244 1-555): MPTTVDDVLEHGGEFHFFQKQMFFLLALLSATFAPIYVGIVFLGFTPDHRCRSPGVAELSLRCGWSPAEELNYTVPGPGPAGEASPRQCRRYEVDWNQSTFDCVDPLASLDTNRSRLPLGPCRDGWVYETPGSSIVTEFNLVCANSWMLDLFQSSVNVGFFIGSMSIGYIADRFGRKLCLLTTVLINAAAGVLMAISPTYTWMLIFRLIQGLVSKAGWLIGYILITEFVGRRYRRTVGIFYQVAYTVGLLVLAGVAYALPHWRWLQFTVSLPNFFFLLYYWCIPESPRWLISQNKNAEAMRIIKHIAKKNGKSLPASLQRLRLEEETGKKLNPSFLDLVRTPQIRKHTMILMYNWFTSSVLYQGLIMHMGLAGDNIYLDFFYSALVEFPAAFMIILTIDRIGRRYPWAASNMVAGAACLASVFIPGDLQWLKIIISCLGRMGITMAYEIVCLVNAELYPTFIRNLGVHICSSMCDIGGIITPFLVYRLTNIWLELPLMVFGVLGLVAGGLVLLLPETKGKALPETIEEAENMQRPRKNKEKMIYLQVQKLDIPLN
# Experimental: as §1, §2
# hMATE1 [1] = molecular target: T3, hMATE1 (Homo sapiens, UniProt Q96FL8); test: Inhibition of ASP+ uptake in HEK 293 cells expressing hMATE1; assay type: cell-based; settings: inhibition of ASP+ uptake, HEK293 hMATE1, Supplementary Figure 1
# T3 construct: expressed in transfected cells
# T3 sequence (Q96FL8 1-570): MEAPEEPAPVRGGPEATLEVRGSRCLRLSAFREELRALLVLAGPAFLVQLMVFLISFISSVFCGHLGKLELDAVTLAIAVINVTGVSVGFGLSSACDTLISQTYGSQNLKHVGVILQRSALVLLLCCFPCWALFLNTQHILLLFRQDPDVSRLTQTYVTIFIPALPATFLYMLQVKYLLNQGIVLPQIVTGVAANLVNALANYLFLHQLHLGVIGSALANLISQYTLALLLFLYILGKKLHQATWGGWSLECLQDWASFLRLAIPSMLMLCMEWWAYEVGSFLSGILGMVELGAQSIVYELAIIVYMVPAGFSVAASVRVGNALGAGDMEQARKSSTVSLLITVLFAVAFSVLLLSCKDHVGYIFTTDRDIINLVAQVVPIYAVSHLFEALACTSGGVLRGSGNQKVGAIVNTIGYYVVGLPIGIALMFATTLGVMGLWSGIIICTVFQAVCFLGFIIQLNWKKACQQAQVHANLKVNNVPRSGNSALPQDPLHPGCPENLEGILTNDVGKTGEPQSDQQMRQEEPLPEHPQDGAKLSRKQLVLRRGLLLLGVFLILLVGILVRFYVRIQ
# Experimental: as §1, §2
# Ctr1^+/+ MEFs = test: MTT cell viability, Ctr1+/+ MEFs; assay type: cell-based, mouse; settings: 1 mM, 10 min
# Experimental: (§3) A modified 3-(4,5-dimethylthiazol-2-yl)-2,5-diphenyltetrazolium bromide (MTT) assay (Mosmann, [1983]) was used to test the chemosensitivity of cells to phenanthriplatin and, in some experiments, to cisplatin by determining the glycolysis rate via the reduction of the yellow tetrazolium salt MTT to a purple formazan dye, as previously described (Wehe et al., [2014]). Briefly, after growing for 24 h in the incubator, cells expressing or not hOCT2, hMATE1, hMATE2 or Ctr1 were treated for 10 min with platinum derivatives. Control cells were incubated with drug-free complete cell culture medium. Afterwards, the medium was carefully removed and replaced by 200 μL of fresh complete cell culture medium. After incubation for another 24 h, 10 μL of MTT solution containing 5 mg/mL of the dye were added to each well, and the cells were again incubated for 3 h. The medium was then removed and 100 μL of lysis buffer containing 10% (w/v) sodium dodecyl sulfate and 40% (v/v) dimethylformamide was added to each well. The plates were shaken for 10 min to destroy the cell structure and dissolve the blue formazan dye (Furchert et al., [2007]; Wehe et al., [2014]). Finally, the absorbance was measured at 590 nm using an automated microtiter plate reader (Infinite M200; Tecan, Männedorf, Switzerland). The percentage of viable cells in the untreated controls was compared to that for the various treatments. Experiments carried out with DAOY and UW228 cells followed a similar protocol except that these cells were incubated for 24 h with phenanthriplatin.
# Ctr1^−/− MEFs = test: MTT cell viability, Ctr1-/- MEFs; assay type: cell-based, mouse; settings: 1 mM, 10 min
# Experimental: as §3
# hMATE1 [2] = molecular target: T3, hMATE1; set-up: method as in Astorga et al., [2012]; settings: ref Astorga et al., [2012]; cited from earlier work
# hMATE2K = molecular target: T4, hMATE2K (Homo sapiens, UniProt Q86VL8); set-up: method as in Astorga et al., [2012]; settings: ref Astorga et al., [2012]; cited from earlier work
# T4 construct: expressed in transfected cells
# HEK 293 hOCT2 cells = test: MTT cell viability, HEK 293 hOCT2 cells; assay type: cell-based, human; settings: HEK 293 hOCT2, cimetidine alone (10 or 100 μM), 10 min
# Experimental: as §3
# T4 sequence (Q86VL8 1-566 isoform Q86VL8-3): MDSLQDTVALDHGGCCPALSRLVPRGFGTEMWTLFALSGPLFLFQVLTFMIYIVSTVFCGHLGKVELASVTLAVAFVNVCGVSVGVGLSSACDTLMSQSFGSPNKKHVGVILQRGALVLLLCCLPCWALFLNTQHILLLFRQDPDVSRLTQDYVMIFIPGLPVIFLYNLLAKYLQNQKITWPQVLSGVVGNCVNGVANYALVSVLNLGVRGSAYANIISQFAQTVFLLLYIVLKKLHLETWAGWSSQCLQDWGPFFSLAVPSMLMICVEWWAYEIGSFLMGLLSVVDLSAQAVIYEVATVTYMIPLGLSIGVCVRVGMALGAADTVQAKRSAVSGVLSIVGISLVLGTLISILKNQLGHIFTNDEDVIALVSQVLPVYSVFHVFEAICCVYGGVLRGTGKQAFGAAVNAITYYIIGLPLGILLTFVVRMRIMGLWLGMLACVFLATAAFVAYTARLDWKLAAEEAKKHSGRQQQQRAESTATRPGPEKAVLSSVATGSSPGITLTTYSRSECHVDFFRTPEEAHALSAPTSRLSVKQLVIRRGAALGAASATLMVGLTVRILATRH
smiles,measurement,setting,value
"N.N.[Cl][Pt][Cl] [cisplatin, reference compound]",IC50,hOCT1,61 µM
same,IC50,hOCT2,50 µM
same,Interaction (affinity) with hMATE1,hMATE1 [1],very low affinity
same,Cell viability (MTT),Ctr1^+/+ MEFs,toxic to Ctr1^+/+
same,Cell viability (MTT),Ctr1^−/− MEFs,no decrease in cell viability
"C[n+]1ccc(-c2ccccc2)cc1 [MPP^+, 1-methyl-4-phenylpyridinium]",Affinity for hMATE1,hMATE1 [2],4.7 µM
same,Affinity for hMATE2K,hMATE2K,3.3 µM
"CN/C(=N/CCSCc1nc[nH]c1C)NC#N [Cimetidine, cimetidine, reference compound]",Cell viability (MTT),HEK 293 hOCT2 cells,no significant effect on cell viability
